From PubChem BioAssay (NCI)
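Following 48 hours of exposure in 96-well plates, responses at five concentrations were used to interpolate endpoints linearly. TGI is the concentration that stops growth completely.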 Where a SMILES comes first, the peptide text is derived from it. [ ]: non-standard residue; d: D form.

Key:
Assay in all cases: inhibition of tumour cell growth, NCI panel, 48 h
SK-MEL-2 melanoma = test system: SK-MEL-2 melanoma
786-0 renal = test system: 786-0 renal
ACHN renal = test system: ACHN renal
MDA-MB-435 = test system: MDA-MB-435
SK-MEL-5 melanoma = test system: SK-MEL-5 melanoma
CCRF-CEM leukemia = test system: CCRF-CEM leukemia
HS 578T breast = test system: HS 578T breast
UO-31 renal = test system: UO-31 renal
SNB-19 CNS = test system: SNB-19 CNS
NCI-H23 lung = test system: NCI-H23 lung
RPMI-8226 leukemia = test system: RPMI-8226 leukemia
K-562 leukemia = test system: K-562 leukemia
NCI-H522 lung = test system: NCI-H522 lung
SK-OV-3 ovarian = test system: SK-OV-3 ovarian
SF-539 CNS = test system: SF-539 CNS
SF-295 CNS = test system: SF-295 CNS
MDA-MB-231 breast = test system: MDA-MB-231 breast
HCT-15 colon = test system: HCT-15 colon
SW-620 colon = test system: SW-620 colon
HCC-2998 colon = test system: HCC-2998 colon
OVCAR-8 ovarian = test system: OVCAR-8 ovarian
HOP-92 NSCLC = test system: HOP-92 NSCLC
UACC-257 melanoma = test system: UACC-257 melanoma
OVCAR-4 ovarian = test system: OVCAR-4 ovarian
SR leukemia = test system: SR leukemia
CAKI-1 renal = test system: CAKI-1 renal
OVCAR-5 ovarian = test system: OVCAR-5 ovarian
IGROV1 ovarian = test system: IGROV1 ovarian
RXF 393 renal = test system: RXF 393 renal
HCT-116 colon = test system: HCT-116 colon
MCF7 breast = test system: MCF7 breast
T-47D breast = test system: T-47D breast
HT29 colon = test system: HT29 colon
HOP-62 NSCLC = test system: HOP-62 NSCLC
NCI-H226 lung = test system: NCI-H226 lung
U251 CNS = test system: U251 CNS
TK-10 renal = test system: TK-10 renal
COLO 205 colon = test system: COLO 205 colon
A498 renal = test system: A498 renal
M14 melanoma = test system: M14 melanoma
NCI-H460 lung = test system: NCI-H460 lung
EKVX NSCLC = test system: EKVX NSCLC
NCI/ADR-RES ovarian = test system: NCI/ADR-RES ovarian
BT-549 breast = test system: BT-549 breast
LOX IMVI melanoma = test system: LOX IMVI melanoma
UACC-62 melanoma = test system: UACC-62 melanoma
SF-268 CNS = test system: SF-268 CNS
HL-60(TB) leukemia = test system: HL-60(TB) leukemia
OVCAR-3 ovarian = test system: OVCAR-3 ovarian
MOLT-4 leukemia = test system: MOLT-4 leukemia
PC-3 prostate = test system: PC-3 prostate
DU-145 prostate = test system: DU-145 prostate
A549 NSCLC = test system: A549 NSCLC
SN12C renal = test system: SN12C renal
KM12 colon = test system: KM12 colon
SK-MEL-28 melanoma = test system: SK-MEL-28 melanoma
MALME-3M melanoma = test system: MALME-3M melanoma
SNB-75 CNS = test system: SNB-75 CNS

NC(N)=NCCC[C@H]1NC(=O)[C@@H](CCC(=O)O)NC(=O)[C@@H](CC(=O)O)NC(=O)[C@@H](CCC(=O)O)NC(=O)[C@H](Cc2c[nH]c3ccccc23)NC1=O (cyclo(W[dE][dD][dE][dR]))
TGI (SK-MEL-2 melanoma): 0.507 µM | TGI (786-0 renal): > 7.5 µM | TGI (ACHN renal): > 7.5 µM | TGI (MDA-MB-435): > 7.5 µM | TGI (SK-MEL-5 melanoma): > 7.5 µM | TGI (CCRF-CEM leukemia): > 7.5 µM | TGI (HS 578T breast): > 7.5 µM | TGI (UO-31 renal): > 7.5 µM | TGI (SNB-19 CNS): > 7.5 µM | TGI (NCI-H23 lung): > 7.5 µM | TGI (RPMI-8226 leukemia): > 7.5 µM | TGI (K-562 leukemia): > 7.5 µM | TGI (NCI-H522 lung): > 7.5 µM | TGI (SK-OV-3 ovarian): > 7.5 µM | TGI (SF-539 CNS): > 7.5 µM | TGI (SF-295 CNS): > 7.5 µM | TGI (MDA-MB-231 breast): > 7.5 µM | TGI (HCT-15 colon): > 7.5 µM | TGI (SW-620 colon): > 7.5 µM | TGI (HCC-2998 colon): > 7.5 µM | TGI (OVCAR-8 ovarian): > 7.5 µM | TGI (HOP-92 NSCLC): > 7.5 µM | TGI (UACC-257 melanoma): > 7.5 µM | TGI (OVCAR-4 ovarian): > 7.5 µM | TGI (SR leukemia): > 7.5 µM | TGI (CAKI-1 renal): > 7.5 µM | TGI (OVCAR-5 ovarian): > 7.5 µM | TGI (IGROV1 ovarian): > 7.5 µM | TGI (RXF 393 renal): > 7.5 µM | TGI (HCT-116 colon): > 7.5 µM | TGI (MCF7 breast): > 7.5 µM | TGI (T-47D breast): > 7.5 µM | TGI (HT29 colon): > 7.5 µM | TGI (HOP-62 NSCLC): > 7.5 µM | TGI (NCI-H226 lung): > 7.5 µM | TGI (U251 CNS): > 7.5 µM | TGI (TK-10 renal): > 7.5 µM | TGI (COLO 205 colon): > 7.5 µM | TGI (A498 renal): > 7.5 µM | TGI (M14 melanoma): > 7.5 µM | TGI (NCI-H460 lung): > 7.5 µM | TGI (EKVX NSCLC): > 7.5 µM | TGI (NCI/ADR-RES ovarian): > 7.5 µM | TGI (BT-549 breast): > 7.5 µM | TGI (LOX IMVI melanoma): > 7.5 µM | TGI (UACC-62 melanoma): > 7.5 µM | TGI (SF-268 CNS): > 7.5 µM | TGI (HL-60(TB) leukemia): > 7.5 µM | TGI (OVCAR-3 ovarian): > 7.5 µM | TGI (MOLT-4 leukemia): > 7.5 µM | TGI (PC-3 prostate): > 7.5 µM | TGI (DU-145 prostate): > 7.5 µM | TGI (A549 NSCLC): > 7.5 µM | TGI (SN12C renal): > 7.5 µM | TGI (KM12 colon): > 7.5 µM

Cc1cc2c(c(S(=O)(=O)c3ccc(Cl)cc3[N+](=O)[O-])c1)NCCC2
TGI (SK-MEL-2 melanoma): > 100 µM | TGI (786-0 renal): > 100 µM | TGI (ACHN renal): > 100 µM | TGI (MDA-MB-435): > 100 µM | TGI (SK-MEL-5 melanoma): > 100 µM | TGI (HS 578T breast): > 100 µM | TGI (UO-31 renal): > 100 µM | TGI (SNB-19 CNS): > 100 µM | TGI (NCI-H23 lung): > 100 µM | TGI (RPMI-8226 leukemia): > 100 µM | TGI (NCI-H522 lung): > 100 µM | TGI (SK-OV-3 ovarian): > 100 µM | TGI (SF-539 CNS): > 100 µM | TGI (SK-MEL-28 melanoma): > 100 µM | TGI (SF-295 CNS): > 100 µM | TGI (MALME-3M melanoma): > 100 µM | TGI (MDA-MB-231 breast): > 100 µM | TGI (HCT-15 colon): > 100 µM | TGI (SW-620 colon): > 100 µM | TGI (HCC-2998 colon): > 100 µM | TGI (OVCAR-8 ovarian): > 100 µM | TGI (OVCAR-4 ovarian): > 100 µM | TGI (SR leukemia): > 100 µM | TGI (OVCAR-5 ovarian): > 100 µM | TGI (IGROV1 ovarian): > 100 µM | TGI (RXF 393 renal): > 100 µM | TGI (MCF7 breast): > 100 µM | TGI (T-47D breast): > 100 µM | TGI (HT29 colon): > 100 µM | TGI (HOP-62 NSCLC): > 100 µM | TGI (NCI-H226 lung): > 100 µM | TGI (U251 CNS): > 100 µM | TGI (TK-10 renal): > 100 µM | TGI (COLO 205 colon): > 100 µM | TGI (A498 renal): > 100 µM | TGI (M14 melanoma): > 100 µM | TGI (NCI-H460 lung): > 100 µM | TGI (EKVX NSCLC): > 100 µM | TGI (NCI/ADR-RES ovarian): > 100 µM | TGI (BT-549 breast): > 100 µM | TGI (LOX IMVI melanoma): > 100 µM | TGI (UACC-62 melanoma): > 100 µM | TGI (SF-268 CNS): > 100 µM | TGI (SNB-75 CNS): > 100 µM | TGI (OVCAR-3 ovarian): > 100 µM | TGI (PC-3 prostate): > 100 µM | TGI (DU-145 prostate): > 100 µM | TGI (A549 NSCLC): > 100 µM | TGI (SN12C renal): > 100 µM | TGI (KM12 colon): > 100 µM

COc1ccc(C(C)c2cc3c(cc2O)OCO3)cc1 (stereo unspecified)
TGI (SK-MEL-2 melanoma): 28.9 µM | TGI (786-0 renal): 34.5 µM | TGI (ACHN renal): 47.6 µM | TGI (MDA-MB-435): 18 µM | TGI (SK-MEL-5 melanoma): 28.1 µM | TGI (HS 578T breast): 42.6 µM | TGI (UO-31 renal): 29.8 µM | TGI (SNB-19 CNS): 66.6 µM | TGI (NCI-H23 lung): 31.1 µM | TGI (RPMI-8226 leukemia): 38.8 µM | TGI (K-562 leukemia): 28.7 µM | TGI (NCI-H522 lung): 26 µM | TGI (SK-OV-3 ovarian): 53.2 µM | TGI (SF-539 CNS): 37 µM | TGI (SK-MEL-28 melanoma): 33 µM | TGI (SF-295 CNS): 35.3 µM | TGI (MDA-MB-231 breast): 28.6 µM | TGI (HCT-15 colon): 23.2 µM | TGI (SW-620 colon): 28 µM | TGI (HCC-2998 colon): 19.3 µM | TGI (OVCAR-8 ovarian): 31.7 µM | TGI (HOP-92 NSCLC): 31 µM | TGI (UACC-257 melanoma): 32.2 µM | TGI (OVCAR-4 ovarian): > 100 µM | TGI (SR leukemia): 13.6 µM | TGI (CAKI-1 renal): 74.4 µM | TGI (OVCAR-5 ovarian): 45.2 µM | TGI (IGROV1 ovarian): 36.5 µM | TGI (RXF 393 renal): 30.1 µM | TGI (HCT-116 colon): 29.6 µM | TGI (MCF7 breast): 30.8 µM | TGI (T-47D breast): 79.1 µM | TGI (HT29 colon): 28.9 µM | TGI (HOP-62 NSCLC): 33.7 µM | TGI (NCI-H226 lung): 36.1 µM | TGI (U251 CNS): 28.6 µM | TGI (TK-10 renal): 35.9 µM | TGI (COLO 205 colon): 27.4 µM | TGI (A498 renal): 28.5 µM | TGI (M14 melanoma): 27.2 µM | TGI (NCI-H460 lung): 28.8 µM | TGI (EKVX NSCLC): 49.6 µM | TGI (NCI/ADR-RES ovarian): 32.7 µM | TGI (BT-549 breast): 32.5 µM | TGI (LOX IMVI melanoma): 26.5 µM | TGI (UACC-62 melanoma): 24.4 µM | TGI (SF-268 CNS): 32.5 µM | TGI (SNB-75 CNS): 60.2 µM | TGI (HL-60(TB) leukemia): 32.3 µM | TGI (OVCAR-3 ovarian): 28.3 µM | TGI (MOLT-4 leukemia): 29.4 µM | TGI (PC-3 prostate): 31.9 µM | TGI (DU-145 prostate): 36.5 µM | TGI (A549 NSCLC): 32.2 µM | TGI (SN12C renal): 33.3 µM | TGI (KM12 colon): 83.3 µM
